According to ChEMBL document CHEMBL1146011, “Diaryl substituted pyrrolidinones and pyrrolones as 5-HT2C inhibitors: synthesis and biological evaluation” (Bioorg Med Chem Lett, 2006):

Columns and labels:
[1] = target: 5-hydroxytryptamine receptor 2A (Homo sapiens, UniProt P28223); test: Binding affinity to human 5HT2A receptor
[2] = target: 5-hydroxytryptamine receptor 2B (Homo sapiens, UniProt P41595); test: Binding affinity to human 5HT2B receptor
[3] = target: T1, 5-hydroxytryptamine receptor 2C (Homo sapiens, UniProt P28335); test: Binding affinity to human 5HT2C receptor
T1 sequence (P28335 whole entry): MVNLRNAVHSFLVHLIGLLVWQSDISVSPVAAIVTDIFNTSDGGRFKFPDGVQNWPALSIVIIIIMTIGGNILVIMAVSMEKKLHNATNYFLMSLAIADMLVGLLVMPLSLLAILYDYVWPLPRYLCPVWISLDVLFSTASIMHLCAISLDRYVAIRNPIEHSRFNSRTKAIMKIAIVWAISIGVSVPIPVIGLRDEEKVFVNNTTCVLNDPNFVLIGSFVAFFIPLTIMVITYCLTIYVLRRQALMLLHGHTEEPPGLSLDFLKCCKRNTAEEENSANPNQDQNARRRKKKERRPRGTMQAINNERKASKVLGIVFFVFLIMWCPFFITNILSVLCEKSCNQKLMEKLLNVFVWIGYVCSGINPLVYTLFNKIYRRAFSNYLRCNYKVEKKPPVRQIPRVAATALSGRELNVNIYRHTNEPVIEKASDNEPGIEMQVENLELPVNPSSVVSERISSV

[4] = Bioavailability in orally dosed rat; format: ADME, organism-based; settings: in vivo, po
[5] = Ratio of drug level in brain against plasma in orally dosed rat; format: ADME, organism-based; settings: po, read-out: BPR
[6] = Plasma clearance in orally dosed rat; format: ADME, organism-based; settings: po
Rattus norvegicus [7] = test: Volume of distribution in orally dosed rat; format: ADME, organism-based; settings: in vivo, po
[8] = Half life in orally dosed rat; format: ADME, organism-based; settings: in vivo, po
Rattus norvegicus [9] = test: Drug level in orally dosed rat brain; format: ADME, organism-based; settings: in vivo, po

Chain of 5-hydroxytryptamine receptor 2B (P41595 whole entry): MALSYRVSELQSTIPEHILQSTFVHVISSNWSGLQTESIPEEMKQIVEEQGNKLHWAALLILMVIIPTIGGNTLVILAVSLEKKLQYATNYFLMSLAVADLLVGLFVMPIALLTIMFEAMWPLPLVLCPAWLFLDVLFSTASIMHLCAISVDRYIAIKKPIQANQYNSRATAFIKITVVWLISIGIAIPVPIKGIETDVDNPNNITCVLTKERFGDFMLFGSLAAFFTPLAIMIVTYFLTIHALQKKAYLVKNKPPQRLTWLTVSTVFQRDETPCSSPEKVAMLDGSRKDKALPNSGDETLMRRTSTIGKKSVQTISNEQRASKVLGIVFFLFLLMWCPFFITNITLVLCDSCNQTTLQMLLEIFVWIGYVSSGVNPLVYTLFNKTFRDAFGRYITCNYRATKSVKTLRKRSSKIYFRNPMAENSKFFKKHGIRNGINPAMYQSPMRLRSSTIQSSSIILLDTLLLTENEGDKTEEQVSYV
Chain of 5-hydroxytryptamine receptor 2A (P28223 whole entry): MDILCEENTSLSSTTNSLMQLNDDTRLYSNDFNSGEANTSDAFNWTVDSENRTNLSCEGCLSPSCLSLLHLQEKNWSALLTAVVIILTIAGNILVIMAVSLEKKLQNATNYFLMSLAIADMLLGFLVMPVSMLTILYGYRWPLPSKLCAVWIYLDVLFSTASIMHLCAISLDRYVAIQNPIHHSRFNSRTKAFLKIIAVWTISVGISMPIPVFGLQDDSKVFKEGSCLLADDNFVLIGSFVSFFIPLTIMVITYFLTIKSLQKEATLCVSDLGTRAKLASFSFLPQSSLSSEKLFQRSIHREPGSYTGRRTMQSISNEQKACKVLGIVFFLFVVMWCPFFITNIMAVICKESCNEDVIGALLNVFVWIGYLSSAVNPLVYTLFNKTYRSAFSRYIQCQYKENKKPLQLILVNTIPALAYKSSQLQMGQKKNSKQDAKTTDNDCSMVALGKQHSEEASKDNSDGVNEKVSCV

Ki [1] [nM] | Ki [2] [nM] | Ki [3] [nM] | Structure (SMILES) | further results
> 1000 | > 1000 | 25.1 | COc1ccc(N2CCC(c3cccc(Cl)c3)C2=O)cc1OCCN1CCCCC1 (stereo not drawn) | –
398 | > 1000 | 25.1 | COc1ccc(N2CCC(c3ccc(Cl)c(Cl)c3)C2=O)cc1OCCN1CCC(C(C)C)CC1 (stereo not drawn) | –
> 1000 | > 1580 | 100 | O=C1C(c2ccc(Cl)c(Cl)c2)CCN1c1ccc(Cl)c(OCCN2CCCCC2)c1 (stereo not drawn) | –
> 3160 | > 1580 | 316 | CC(=O)Nc1ccc(N2CCC(c3ccc(Cl)c(Cl)c3)C2=O)cc1OCCN1CCCCC1 (stereo not drawn) | –
> 7940 | > 1580 | 100 | COc1ccc(N2CCC(c3cccc(F)c3)C2=O)cc1OCCN1CCCCC1 (stereo not drawn) | –
794 | 398 | 10 | COc1ccc(C2CCN(c3ccc(Cl)c(Cl)c3)C2=O)cc1OCCN1CCCCC1 (stereo not drawn) | –
631 | 1000 | 5.01 | COc1ccc(N2CCC(C)(c3ccc(Cl)c(Cl)c3)C2=O)cc1OCCN1CCCCC1 (stereo not drawn) | bioavailability [4]: 13%; Kp [5]: 5; CL/F [6]: 65 mL/min/kg
> 2510 | > 5010 | 100 | COc1ccc(N2CCC(c3ccc(F)cc3)C2=O)cc1OCCN1CCCCC1 (stereo not drawn) | –
1260 | 126 | 5.01 | COc1ccc(C2=CCN(c3ccc(Cl)c(Cl)c3)C2=O)cc1OCCN1CCCCC1 | –
> 1260 | > 794 | 20 | COc1ccc(C2CCN(c3cccc(F)c3)C2=O)cc1OCCN1CCCCC1 (stereo not drawn) | –
398 | 2000 | 12.6 | COc1ccc(N2CCC(c3ccc(Cl)c(Cl)c3)C2=O)cc1OCCN1CCC(C)CC1 (stereo not drawn) | –
501 | 1580 | 12.6 | COc1ccc(N2CCC(c3ccc(Cl)c(Cl)c3)C2=O)cc1OCCN1CCCCC1 (stereo not drawn) | –
3160 | 1580 | 794 | O=C1C(c2ccc(Cl)c(Cl)c2)CCN1c1ccc(OC(F)(F)F)c(OCCN2CCCCC2)c1 (stereo not drawn) | –
> 1580 | > 1580 | 398 | Cc1ccc(N2CCC(c3ccc(Cl)c(Cl)c3)C2=O)cc1OCCN1CCCCC1 (stereo not drawn) | –
> 1260 | > 2000 | 126 | Cc1ccc(N2CC=C(c3ccc(Cl)c(Cl)c3)C2=O)cc1OCCN1CCCCC1 | –
> 2000 | 1580 | 20 | COc1ccc(N2CCC(c3ccc(OC)c(OCCN4CCCCC4)c3)C2=O)cc1Cl (stereo not drawn) | –
> 1000 | > 1580 | 15.8 | COc1ccc(N2CCC(c3ccc(OC)c(OCCN4CCCCC4)c3)C2=O)cc1F (stereo not drawn) | –
398 | > 1000 | 12.6 | COc1ccc(N2CCC(c3ccc(Cl)c(Cl)c3)C2=O)cc1OCCN1CCC(C)(C)CC1 (stereo not drawn) | –
> 10000 | > 10000 | 100 | COc1ccc(N2CCC(c3ccc(OC)c(OCCN4CCCCC4)c3)C2=O)cc1 (stereo not drawn) | –
> 1260 | > 1580 | 63.1 | O=C1C(c2ccc(Cl)c(Cl)c2)=CCN1c1ccc(Cl)c(OCCN2CCCCC2)c1 | –

Further lines, the compound ahead of its results:

Structure (SMILES) | Ki [1] [nM] | Ki [2] [nM] | Ki [3] [nM] | further results
COc1ccc(N2CC=C(c3cccc(C(F)(F)F)c3)C2=O)cc1OCCN1CCCCC1 | 794 | > 794 | 5.01 | –
COc1ccc(C2=CCN(c3cccc(F)c3)C2=O)cc1OCCN1CCCCC1 | 1000 | 501 | 6.31 | –
COc1ccc(N2CC=C(c3ccc(C)cc3)C2=O)cc1OCCN1CCCCC1 | > 1000 | > 1000 | 0.316 | –
COc1ccc(N2CC=C(c3ccc(Cl)c(Cl)c3)C2=O)cc1OCCN1CCC(C)(C)CC1 | > 6310 | 316 | 3.98 | –
COc1ccc(N2CC=C(c3ccc(C)cc3)C2=O)cc1OCCN1CCC(C)CC1 | 631 | 1580 | 1.58 | –
COc1ccc(N2CC=C(c3ccc(Cl)c(Cl)c3)C2=O)cc1OCCN1CCCC1 | 631 | > 1580 | 3.98 | –
CC(=O)Nc1ccc(N2CC=C(c3ccc(Cl)c(Cl)c3)C2=O)cc1OCCN1CCCCC1 | > 1580 | > 1580 | 50.1 | –
COc1ccc(N2CC=C(c3ccc(C(F)(F)F)cc3)C2=O)cc1OCCN1CCC(C)CC1 | 1580 | > 10000 | 12.6 | –
COc1ccc(N2CC=C(c3ccc(Cl)c(Cl)c3)C2=O)cc1OCCN1CCC(C(C)C)CC1 | > 794 | > 1000 | 12.6 | –
COc1ccc(N2CC=C(c3ccc(Cl)c(F)c3)C2=O)cc1OCCN1CCC(C)CC1 | > 1260 | > 2000 | 7.94 | –
COc1ccc(N2CC=C(c3ccc(OC)c(OCCN4CCCCC4)c3)C2=O)cc1 | > 5010 | > 2000 | 10 | –
COc1ccc(N2CC=C(c3ccc(Cl)cc3)C2=O)cc1OCCN1CCC(C)CC1 | 631 | > 1580 | 6.31 | –
COc1ccc(N2CC=C(c3ccc(Cl)cc3)C2=O)cc1OCCN1CCCCC1 | 1000 | > 1580 | 7.94 | –
COc1ccc(N2CC=C(c3ccc(F)cc3)C2=O)cc1OCCN1CCCCC1 | 398 | 1000 | 6.31 | –
COc1ccc(N2CC=C(c3cccc(Cl)c3)C2=O)cc1OCCN1CCC(C)CC1 | 794 | 501 | 5.01 | –
COc1ccc(N2CC=C(c3ccc(OC)c(OCCN4CCCCC4)c3)C2=O)cc1Cl | > 6310 | – | 5.01 | Log Ki [2]: > -6.4

Structure (SMILES) | Ki [1] [nM] | Ki [2] [nM] | Ki [3] [nM] | further results
COc1ccc(C2(C)CCN(c3ccc(Cl)c(Cl)c3)C2=O)cc1OCCN1CCCCC1 (stereo not drawn) | 501 | – | 10 | Log Ki [2]: > -6.3
COc1ccc(N2CCC(C)(c3ccc(Cl)c(Cl)c3)C2=O)cc1OCCN1CCC(C)CC1 (stereo not drawn) | – | > 794 | 5.01 | Log Ki [1]: > -6.3; bioavailability [4]: 50%; Kp [5]: 1.8; CL/F [6]: 20 mL/min/kg
COc1ccc(N2CC=C(c3ccc(Cl)c(Cl)c3)C2=O)cc1OCCN1CCC(F)(F)CC1 | > 5010 | > 5010 | 7.94 | –
O=C1C(c2ccc(Cl)c(Cl)c2)=CCN1c1ccc(OC(F)(F)F)c(OCCN2CCCCC2)c1 | > 10000 | > 3160 | > 1260 | –
COc1ccc(N2CC=C(c3cccc(F)c3)C2=O)cc1OCCN1CCCCC1 | 631 | 501 | 0.794 | –
COc1ccc(N2CC=C(c3ccc(Br)cc3)C2=O)cc1OCCN1CCC(C)CC1 | 398 | – | 3.98 | Log Ki [2]: > -6.2
COc1ccc(N2CC=C(c3ccc(F)cc3)C2=O)cc1OCCN1CCC(C)CC1 | 251 | 1260 | 3.16 | –
COc1ccc(N2CC=C(c3ccc(Cl)c(Cl)c3)C2=O)cc1OCCN1CCOCC1 | 3980 | > 1580 | 6.31 | –
COc1ccc(N2CC=C(c3ccc(Cl)c(Cl)c3)C2=O)cc1OCCN1CCC(C)CC1 | 794 | > 794 | 3.16 | Vdss (Rattus norvegicus [7]): 4 L; bioavailability [4]: 52%; Kp [5]: 7.2; half-life [8]: 4.5 h; Drug uptake (Rattus norvegicus [9]): 1058 ng/g; CL/F [6]: 11 mL/min/kg
COc1ccc(C2=C(C)CN(c3ccc(Cl)cc3)C2=O)cc1OCCN1CCCCC1 | 398 | 501 | 200 | –
COc1ccc(N2CC=C(c3ccc(Br)cc3)C2=O)cc1OCCN1CCCCC1 | 158 | 200 | 1.26 | –
COc1ccc(N2CC=C(c3cccc(Cl)c3)C2=O)cc1OCCN1CCCCC1 | 631 | 631 | 2.51 | –
COc1ccc(N2CC=C(c3ccc(C(F)(F)F)cc3)C2=O)cc1OCCN1CCCCC1 | > 1260 | > 1000 | 12.6 | –
O=C1C(c2ccc(Cl)c(Cl)c2)=CCN1c1ccc(N2CCCC2)c(OCCN2CCCCC2)c1 | > 1260 | > 10000 | 200 | –
COc1ccc(N2CC=C(c3ccc(OC)c(OCCN4CCCCC4)c3)C2=O)cc1F | > 3160 | > 1580 | 6.31 | –
COc1ccc(C2=C(C)CN(c3ccc(Cl)c(Cl)c3)C2=O)cc1OCCN1CCCCC1 | 501 | 200 | 126 | –
